From patent US20240409543A1, “PYRROLOPYRAZOLE SPIRO COMPOUND” (CHIA TAI TIANQING PHARMACEUTICAL GROUP CO., LTD., priority 2021, published 2024) come the findings set out here.

The target of data set [1] is T1, SHP2 (Homo sapiens, UniProt Q06124).
T1 construct: Homogeneous Full Length SHP-2 Assay Kit (purchased from BPS Bioscience); purchased BPS Bioscience
T1 sequence (Q06124 1-593): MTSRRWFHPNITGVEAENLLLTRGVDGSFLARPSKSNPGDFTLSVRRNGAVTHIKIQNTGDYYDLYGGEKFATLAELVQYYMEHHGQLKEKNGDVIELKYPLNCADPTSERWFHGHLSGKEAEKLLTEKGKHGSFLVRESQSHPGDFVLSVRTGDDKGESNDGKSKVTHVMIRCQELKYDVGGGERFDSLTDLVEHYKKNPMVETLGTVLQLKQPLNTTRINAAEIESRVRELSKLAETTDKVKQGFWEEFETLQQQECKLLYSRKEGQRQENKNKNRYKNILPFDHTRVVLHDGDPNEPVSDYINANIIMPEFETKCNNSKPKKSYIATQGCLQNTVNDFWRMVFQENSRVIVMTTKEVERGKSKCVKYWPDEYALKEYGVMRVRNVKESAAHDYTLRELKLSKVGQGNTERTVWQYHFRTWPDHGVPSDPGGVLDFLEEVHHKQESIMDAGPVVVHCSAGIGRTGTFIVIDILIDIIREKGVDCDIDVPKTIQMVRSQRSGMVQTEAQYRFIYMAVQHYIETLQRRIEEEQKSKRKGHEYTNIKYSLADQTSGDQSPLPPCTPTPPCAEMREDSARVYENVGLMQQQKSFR
The data set is described as follows: SHP2 in-vitro enzymology experiment (Homogeneous Full Length SHP-2 Assay Kit, DiFMUP substrate). It counts as biochemical. Particulars: 60 min pre-incubation, 30 min reaction at 25° C. The method, then:
Experimental materials: Homogeneous Full Length SHP-2 Assay Kit (purchased from BPS Bioscience) and NIVO multimode microplate reader.
Preparation of 1× buffer (ready-to-use): 5× buffer was diluted with deionized water to give 1× buffer, which was then placed on ice for later use.
Each test compound was diluted with 100% DMSO to 100 μM as the first concentration, and then diluted in a 4-fold gradient to the 8th concentration (i.e., from 100 μM to 6.1 nM) using a multi-channel pipette. Each gradient of the test compound was diluted with 1× buffer to prepare a working solution with 10% DMSO. The resulting solution was then added to the corresponding wells of a plate at 5 μL/well, with duplicate wells set up. The plate was then centrifuged at 1000 rpm for 1 min.
18 μL of a prepared reaction mixed solution (containing 12.25 μL of deionized water, 5 μL of 5× buffer; 0.25 μL of SHP-2 substrate polypeptide (100 μM), and 0.5 μL of DTT (250 mM)) was added to each well. The plate was then centrifuged at 1000 rpm for 1 min.
An SHP-2 enzyme was diluted to 0.1 ng/μL with 1× buffer. The resulting solution was added to the corresponding wells at 2 μL/well, and 2 μL of 1× buffer and […] were added to each negative control well. This step was performed on ice. The reaction system was then incubated at 25° C. for 60 min for compound pre-incubation.
After the compound pre-incubation was completed, 25 μL of a substrate working solution (containing 19.45 μL of deionized water, 5 μL of 5× buffer; 0.5 μL of DTT (250 mM), and 0.05 μL of SHP-2 Substrate (DiFMUP) (10 mM)) was added to each well, and the reaction system was allowed to react at 25° C. for 30 min. At that time, the final concentration gradient of the compound ranged from 1 μM to 0.061 nM. After the reaction was completed, the fluorescence values were read using the NIVO multimode microplate reader, with an excitation wavelength of 360 nm and an emission wavelength of 460 nm.
Detection of compound background reading values: Each gradient of the test compound diluted with 100% DMSO was added to a new compound plate at 5 μL/well, and then 1× buffer was added at 45 μL/well to achieve a 10-fold dilution to prepare a working solution with 10% DMSO. Next, the compound working solution was added to the detection plate at 5 μL/well, and then 1× buffer was added at 45 μL/well to achieve another 10-fold dilution, bringing the final concentration of DMSO to 1%. The plate was then centrifuged at 1000 rpm for 1 min. The fluorescence values were read using the multimode microplate reader, with an excitation wavelength of 360 nm and an emission wavelength of 460 nm.
The original data were converted to inhibition rates and the IC50 values were obtained by curve fitting using a four-parameter method.

Data set [2] is described as follows: In-vivo pharmacokinetic study in mice. Further details: species or system male CD-1 mice. Particulars: male, CD-1, mouse, plasma. The method, then: This experiment was intended to evaluate the pharmacokinetic behavior of each compound after a single intravenous injection and intragastric administration and to investigate the bioavailability after intragastric administration.
Male CD-1 mice aged 7 to 10 weeks were selected. The mice were fasted for at least 12 h before administration and were allowed to feed again 4 h after administration, with free access to water throughout the experiment.
On the day of the experiment, animals in the intravenous group were given the corresponding compound by a single injection via the tail vein at an administration volume of 5 mL/kg; animals in the oral group were given the corresponding compound by a single intragastric administration at an administration volume of 10 mL/kg. The animals were weighed before administration, and the administration volume was calculated based on their body weight. Sample collection time points: For the injection group, samples were collected at 0.083 h, 0.25 h, 0.5 h, 1 h, 2 h, 4 h, 8 h, and 24 h; for the intragastric group, samples were collected at 0.25 h, 0.5 h, 1 h, 2 h, 4 h, 6 h, 8 h, and 24 h. At each time point, approximately 30 μL of whole blood was collected via the saphenous vein, which was then used to prepare plasma for concentration determination by high performance liquid chromatography-tandem mass spectrometry (LC-MS/MS). All animals were euthanized with […] after the PK samples were taken at the last time point. The plasma concentrations were processed using a non-compartmental model of the pharmacokinetic software WmnNonlin™ Version 6.3 (Pharsight, Mountain View, CA), and the pharmacokinetic parameters were calculated using a linear log-trapezoidal method.

The mark [3] stands for this setting: iv, injection (tail vein), dose 2 mg/kg.
Setting [4] is: oral administration, dose 10 mg/kg.
Setting [5] is: iv, injection (tail vein), dose 1 mg/kg.
The mark [6] stands for this setting: oral 2 mg/kg vs injection 1 mg/kg.
[7] abbreviates: oral administration, dose 2 mg/kg.

One may read the IC50 as the concentration needed to halve the response being measured. A higher IC50 goes with lower potency. As usually defined, the AUC(0-t) is exposure summed from dosing to a finite time, without extrapolation to infinity. A lower AUC(0-t) goes with less exposure. A word on the clearance: it is the volume of plasma or blood freed of the substance per unit of time. Low readings indicate inefficient removal, high ones efficient removal. As usually defined, the bioavailability is dose-corrected exposure relative to a reference, in per cent. One may read the Cmax as the highest concentration seen after dosing. `Cc1nc(N2CCC3(CC2)Cn2nccc2C3N)c(CO)nc1Sc1ccnc(N)c1Cl` (stereo not drawn) [Compound 1] returned an IC50 in data set [1] of 1.73 nM. Besides, in data set [2] (setting [3]), the exposure AUC(0-t) was found to be 2.53 µM·h and the clearance was found to be 27.7 mL/min/kg. The molecule further gave a bioavailability in data set [2] (oral 10 mg/kg vs injection 2 mg/kg) of 69.5%. In data set [2] (setting [4]), this molecule returned an area under the curve AUC(0-t) of 8.6 µM·h and a maximum concentration (Cmax) of 3540 nM.
As for `CNc1nccc(Sc2nc(CO)c(N3CCC4(CC3)Cn3nccc3C4N)nc2C)c1Cl` (stereo not drawn) [Compound 2], in data set [1], it took 2.87 nM to reach half-maximal inhibition (IC50). Also, in data set [2] (setting [5]), the AUC(0-t) came to 1.32 µM·h and the clearance was 27 mL/min/kg. The molecule also had a bioavailability in data set [2] (setting [6]) of 83.6%. In data set [2] (setting [7]), this molecule gave an AUC(0-t) of 2.04 µM·h and a Cmax of 927 nM.
Consider `Cc1nc(N2CCC3(CC2)Cn2nccc2C3N)c(CO)nc1Sc1cccnc1C(F)(F)F` (stereo not drawn) [Compound 4], for which the 50% inhibitory concentration (IC50) in data set [1] is 2.14 nM. Also, in data set [2] (setting [5]), the exposure AUC(0-t) amounted to 0.974 µM·h and the clearance turned out to be 35.5 mL/min/kg. In data set [2] (setting [6]), this molecule displayed a bioavailability of 58.6%. Further, in data set [2] (setting [7]), the AUC(0-t) was determined as 0.99 µM·h and the highest level (Cmax) was 372 nM.
Molecule `Cc1nc(N2CCC3(CC2)Cn2nccc2C3N)c(CO)nc1Sc1ccnc(N)c1F` (stereo not drawn) [Compound 6] had an IC50 in data set [1] of 3.15 nM. In data set [2] (setting [5]), the AUC(0-t) was found to be 0.638 µM·h and the clearance amounted to 68.3 mL/min/kg. The molecule also gave a bioavailability in data set [2] (setting [6]) of 89.8%. Also, in data set [2] (setting [7]), the area under the curve AUC(0-t) was determined as 0.817 µM·h and the Cmax was 463 nM.
